Measurements published in patent US9801381B2, “Form of rimsulfuron, a process for its preparation and use of the same” (ROTAM AGROCHEM INTERNATIONAL COMPANY LIMITED, priority 2015, dated 2017).
Like-named read-outs stand apart in the source and are kept apart here.

Legend:
[1] = assay type: physicochemical; settings: pH 7 buffer, test temperature e.g. 20° C.
[2] = Cleanout test (rimsulfuron residue in polyethylene bottles after rinsing, extracted with acetonitrile); assay type: physicochemical; settings: for Cleanout rating, % (concentration of rimsulfuron herbicide in the acetonitrile solution): dispersed in tap water, stood overnight, lower rating = more effective cleanout
Description: The cleanout test was conducted by dispersing in water a sample to produce a concentration that is normally used when applying the herbicide: 25% rimsulfuron. The sample was added to tap water (300 mL) in a 400 mL beaker and magnetically stirred for 2 minutes. The mixture was then stirred for 2 minutes, whereupon the resulting dispersion was dispensed in three 100 mL aliquots to 4-oz (118 mL) polyethylene bottles. The bottles were capped, inverted twice and allowed to stand overnight.
After standing overnight, each individual bottle was inverted twice and the liquid contents were then poured out. Tap water (10 mL) was added and the bottle was inverted until all sediment was re-suspended, whereupon the contents were poured out. Tap water (100 mL) was added and the bottle was inverted twice and then allowed to stand undisturbed for 10 minutes. The bottle was inverted twice more and the contents were poured out. Acetonitrile (10 mL) was added to the bottle to extract any remaining material. The acetonitrile solution was analyzed by reversed-phase liquid chromatography with UV detection. The cleanout rating (the concentration of rimsulfuron herbicide in the acetonitrile solution) is reported in % in Table 6 below.

[3] = assay type: physicochemical
Description: A stock pH 7 buffer solution was prepared by adding aqueous sodium hydroxide solution (0.1 M, 145 mL) to aqueous potassium dihydrogen phosphate solution (0.1 M, 250 mL), and then adding sufficient distilled water to adjust the final volume to 500 mL. At least 1 time and up to about 5 times the amount of rimsulfruon needed for saturation was added to a mixing vessel containing stock buffer solution at the test temperature (e.g., 20° C.). The mixture was magnetically stirred in the dark while being maintained at the test temperature. Samples were periodically removed for analysis. The samples were centrifuged using a high speed, temperature-controlled centrifuge at the test temperature for about 20 minutes at ≧12000 G to remove suspended particles. An aliquot of each supernatant was taken for analysis. The concentration of rimsulfuron in the supernatant was determined by a high pressure liquid chromatography (HPLC) with a reversed phase chromatography column and UV detection. The method should include development of best-fit calibration curves based on at least three standards using linear regression analysis Samples were successively withdrawn from the mixing vessel and analyzed until three successive samples show little or no variation in concentration. The test is preferably replicated to ensure accuracy.

[4] = OD formulation, original concentration 40%
[5] = SG formulation, original concentration 25%
[6] = WG formulation, original concentration 25%

Compound	Concentration measured by HPLC after treatment, % [1, 4] [%]	Concentration measured by HPLC after treatment, % [1, 5] [%]	Concentration measured by HPLC after treatment, % [1, 6] [%]	Cleanout rating, % (concentration of rimsulfuron herbicide in the acetonitrile solution) ([2]; OD formulation) [%]	Cleanout rating, % (concentration of rimsulfuron herbicide in the acetonitrile solution) ([2]; SG formulation) [%]	Cleanout rating, % (concentration of rimsulfuron herbicide in the acetonitrile solution) ([2]; WG formulation) [%]	Cleanout properties compared with the known amorphous rimsulfuron product (in words) ([2]; summary of Table 6)	Solubility compared with amorphous rimsulfuron (in words) [3]
CCS(=O)(=O)c1cccnc1S(=O)(=O)NC(=O)Nc1nc(OC)cc(OC)n1 [Amorphous Rimsulfuron, prepared in Example 1] [1-(4,6-dimethoxypyrimidin-2-yl)-3-(3-ethylsulfonyl-2-pyridylsulfonyl)urea, reference compound]	14	15	12	26	10	13	–	–
CCS(=O)(=O)c1cccnc1S(=O)(=O)NC(=O)Nc1nc(OC)cc(OC)n1 [Rimsulfuron, crystal form A, 98%, prepared in Example 2] [1-(4,6-dimethoxypyrimidin-2-yl)-3-(3-ethylsulfonyl-2-pyridylsulfonyl)urea]	35	24.9	23	5	0.1	2	markedly superior cleanout properties	significant increase in its solubility
